The text below walks through data of PubChem BioAssay AID328 (DTP/NCI, 2004).

The subject of this assay is BDF1 mice, P388 leukemia ip, median survival T/C. Kind of assay: NCI In Vivo Anticancer Drug Screen. Data for tumor model P388 Leukemia (intraperitoneal) in B6D2F1 (BDF1) mice. Conditions: endpoint: median survival time, higher = longer survival. The procedure, abridged:
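Survival ratio, drug arm over vehicle arm, in mice with a transplanted tumour.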

The mark [1] stands for this setting: dose: 50.0 mg/kg/injection, schedule: Q01DX009 (ip), vehicle: saline with Tween-80.
Setting [2] is: dose: 50.0 mg/kg/injection, schedule: Q04DX003 (ip), vehicle: saline with Tween-80.
The mark [3] stands for this setting: dose: 100.0 mg/kg/injection, schedule: Q04DX003 (ip), vehicle: saline with Tween-80.
The mark [4] stands for this setting: dose: 200.0 mg/kg/injection, schedule: Q01DX009 (ip), vehicle: saline with Tween-80.
Setting [5] is: dose: 200.0 mg/kg/injection, schedule: Q04DX003 (ip), vehicle: saline with Tween-80.
Setting [6] is: dose: 12.5 mg/kg/injection, schedule: Q01DX009 (ip), vehicle: Klucel (hydroxypropylcellulose) (HPC).
Where [7] appears, read: dose: 25.0 mg/kg/injection, schedule: Q01DX009 (ip), vehicle: Klucel (hydroxypropylcellulose) (HPC).
[8] abbreviates: dose: 50.0 mg/kg/injection, schedule: Q04DX003 (ip), vehicle: saline.
[9] abbreviates: dose: 100.0 mg/kg/injection, schedule: Q01DX009 (ip), vehicle: saline with Tween-80.
Setting [10] is: dose: 50.0 mg/kg/injection, schedule: Q01DX009 (ip), vehicle: Klucel (hydroxypropylcellulose) (HPC).
Where [11] appears, read: dose: 12.5 mg/kg/injection, schedule: Q01DX009 (ip), vehicle: saline with Tween-80.
Where [12] appears, read: dose: 25.0 mg/kg/injection, schedule: Q01DX009 (ip), vehicle: saline with Tween-80.
[13] abbreviates: dose: 33.0 mg/kg/injection, schedule: Q04DX003 (ip), vehicle: saline with Tween-80.

The structures appear in SMILES notation. Where “and” joins values, the source holds several entries; their conditions need not be identical. Equal entries are not always repeated. Inconclusive results and toxic doses are left out.

Regarding `CCN(CC)CCCC(C)NC(=O)c1ccc(Cl)nc1` (configuration not stated), the T/C (dose: 37.5 mg/kg/injection, schedule: Q01DX009 (ip), vehicle: saline with Tween-80) is 107 % of control; the T/C under setting [1] is 113 % of control; the T/C under setting [2] was 103 % of control; the T/C (dose: 75.0 mg/kg/injection, schedule: Q01DX009 (ip), vehicle: saline with Tween-80) is 96 % of control; the T/C under setting [3] was 107 % of control; the T/C (dose: 150.0 mg/kg/injection, schedule: Q01DX009 (ip), vehicle: saline with Tween-80) is 117 % of control. The T/C is 97 % of control under setting [4] and 110 % of control under setting [5].

In the case of `[Cl][Rh][Cl].c1cn[nH]c1.c1cn[nH]c1.c1cn[nH]c1.c1cn[nH]c1`, the T/C under setting [6] is 114 % of control and the T/C under setting [7] was 94 % of control.

`CCC(CC)OC(=O)c1cccc(C)c1`: the T/C is 104 % of control under setting [2], 108 % of control under setting [3] and 101 % of control under setting [5].

On to `CCOCCc1ccncc1`, for which the T/C was 112 % of control under setting [8]; 108 % of control (dose: 100.0 mg/kg/injection, schedule: Q04DX003 (ip), vehicle: saline); 100 % of control (dose: 200.0 mg/kg/injection, schedule: Q04DX003 (ip), vehicle: saline).

With `CC(=O)ON(CC(=O)OCc1ccccc1)C(C)=O`, the T/C is 100 % of control (dose: 12.5 mg/kg/injection, schedule: Q01DX009 (ip), vehicle: other); 102 % of control (dose: 25.0 mg/kg/injection, schedule: Q01DX009 (ip), vehicle: other); 118 % of control (dose: 50.0 mg/kg/injection, schedule: Q01DX009 (ip), vehicle: other); 102 % of control (dose: 100.0 mg/kg/injection, schedule: Q01DX009 (ip), vehicle: other); 100 % of control (dose: 200.0 mg/kg/injection, schedule: Q01DX009 (ip), vehicle: other).

Consider `CCOC(=O)Sc1ncnc2nc[nH]c12`, for which the T/C by setting is: under setting [9], 109 % of control; under setting [4], 90 % of control.

Turning to `C1=CC2CC1C1CSCC21` (configuration not stated), the T/C by setting is: (dose: 0.03 mg/kg/injection, schedule: Q04DX003 (ip), vehicle: saline) 100 % of control; (dose: 0.06 mg/kg/injection, schedule: Q04DX003 (ip), vehicle: saline) 91 % of control; (dose: 0.13 mg/kg/injection, schedule: Q04DX003 (ip), vehicle: saline) 95 % of control; (dose: 0.19 mg/kg/injection, schedule: Q01DX009 (ip), vehicle: saline) 95 % of control; (dose: 0.27 mg/kg/injection, schedule: Q04DX003 (ip), vehicle: saline) 100 % of control; (dose: 0.39 mg/kg/injection, schedule: Q01DX009 (ip), vehicle: saline) 104 % of control.

As for `CC(C)OC(=O)Nc1ccccc1Cl`, under setting [8], the T/C is 95 % of control.

For `O=C(O)COc1c(Br)cc(Br)cc1Br`, the T/C is 90 % of control under setting [10]; 90 % of control (dose: 100.0 mg/kg/injection, schedule: Q01DX009 (ip), vehicle: Klucel (hydroxypropylcellulose) (HPC)); 110 % of control (dose: 200.0 mg/kg/injection, schedule: Q01DX009 (ip), vehicle: Klucel (hydroxypropylcellulose) (HPC)).

`O=Nc1ccc(O)c2ncccc12`: under “dose: 50.0 mg/kg/injection, schedule: Q01DX001 (ip), vehicle: Klucel (hydroxypropylcellulose) (HPC)”, the T/C is 118 % of control.

Consider `CN(C)c1ccc(C(O)(Cc2cccnc2)c2ccc(N(C)C)cc2)cc1`, for which the T/C by setting is: under setting [1], 113 % of control; under setting [9], 100 % of control; under setting [4], 96 % of control.

For the molecule `O=C(N=Nc1c(O)[nH]c2ccccc12)C(=O)Nc1cccc(C(F)(F)F)c1`, the T/C under setting [1] was 87 % of control.

Turning to `COc1cccc(CCCC(=O)C(C)(C)S(C)=O)c1` (configuration not stated), the T/C was 103 % of control under setting [1], 95 % of control under setting [9] and 103 % of control under setting [4].

With `CCOC(=O)/C(C#N)=C/N=c1ccccn1C`, the T/C (dose: 6.25 mg/kg/injection, schedule: Q04DX002 (ip), vehicle: saline with Tween-80) was 101 % of control; the T/C (dose: 12.5 mg/kg/injection, schedule: Q04DX002 (ip), vehicle: saline with Tween-80) is 101 % of control; the T/C (dose: 25.0 mg/kg/injection, schedule: Q04DX002 (ip), vehicle: saline with Tween-80) was 101 % of control.

Regarding `CCOc1ccc(-c2cc(C)n(C)[n+]2C)cc1`, the T/C under setting [11] was 100 % of control, the T/C under setting [12] is 98 % of control and the T/C under setting [1] was 92 % of control.

Turning to `COc1cc(O)c2c(c1)C(=O)c1cc(C)cc(O)c1C2=O`, the T/C is, setting by setting: (dose: 2.5 mg/kg/injection, schedule: Q01DX009 (ip), vehicle: saline with Tween-80) 100 % of control; (dose: 5.0 mg/kg/injection, schedule: Q01DX009 (ip), vehicle: saline with Tween-80) 100 % of control; (dose: 10.0 mg/kg/injection, schedule: Q01DX009 (ip), vehicle: saline with Tween-80) 95 % of control; (dose: 20.0 mg/kg/injection, schedule: Q01DX009 (ip), vehicle: saline with Tween-80) 100 % of control.

Regarding `COc1ccc(C=NCCN=Cc2ccc(OC)cc2)cc1`, the T/C was 109 % of control (dose: 100.0 mg/kg/injection, schedule: Q01DX001 (ip), vehicle: Klucel (hydroxypropylcellulose) (HPC)); 100 % of control (dose: 200.0 mg/kg/injection, schedule: Q01DX001 (ip), vehicle: Klucel (hydroxypropylcellulose) (HPC)); 95 % of control (dose: 400.0 mg/kg/injection, schedule: Q01DX001 (ip), vehicle: Klucel (hydroxypropylcellulose) (HPC)).

Take `C[S+](C)N(c1ccc(Cl)cc1)C(C)(C)C`: the T/C is 104 % of control (dose: 25.0 mg/kg/injection, schedule: Q01DX001 (ip), vehicle: saline) and 111 % of control (dose: 50.0 mg/kg/injection, schedule: Q01DX001 (ip), vehicle: saline).

On to `COC(=O)C(C#N)Cc1ccccc1Cl` (configuration not stated), for which the T/C is 101 % of control under setting [2]; 98 % of control under setting [3]; 98 % of control under setting [5]; 97 % of control (dose: 400.0 mg/kg/injection, schedule: Q04DX003 (ip), vehicle: saline with Tween-80).

As to `CCOC(=O)c1cnc(N(C)C)[nH]c1=O`, the T/C under setting [6] is 103 % of control, the T/C under setting [7] was 95 % of control and the T/C under setting [10] was 86 % of control.

As to `NC(=S)N/N=C/c1ccc(OC(=O)COc2ccccc2)cn1`, the T/C runs as follows: (dose: 1.56 mg/kg/injection, schedule: Q01DX009 (ip), vehicle: saline with Tween-80) 124 % of control; under setting [11], 163 % of control; under setting [12], 181 % of control; under setting [1], 209 % of control; under setting [9], 235 % of control.

Turning to `O=C1C(C2CCCCC2)CCCC1C1CCCCC1` (configuration not stated), the T/C is, setting by setting: (dose: 100.0 mg/kg/injection, schedule: Q01DX001 (ip), vehicle: saline with Tween-80) 107 % of control; (dose: 200.0 mg/kg/injection, schedule: Q01DX001 (ip), vehicle: saline with Tween-80) 98 % of control.

Regarding `O=C1NC(c2ccccc2)(c2ccccc2)C(=O)N1CCN(CCCl)CCCl`, the T/C runs as follows: (dose: 6.1 mg/kg/injection, schedule: Q04DX003 (ip), vehicle: saline with Tween-80) 100 % of control; (dose: 14.0 mg/kg/injection, schedule: Q04DX003 (ip), vehicle: saline) 150 % of control; (dose: 21.0 mg/kg/injection, schedule: Q04DX003 (ip), vehicle: saline) 190 % of control; under setting [13], 154 % of control and 168 % of control; under setting [2], 181 % of control and 200 % of control.

With `COc1cc(C=Nc2cc(Cl)ccc2-n2ccnc2C)ccc1N(CCCl)CCCl`, the T/C was 170 % of control (dose: 21.0 mg/kg/injection, schedule: Q04DX003 (ip), vehicle: saline with Tween-80); 235 % of control under setting [13]; 170 % of control under setting [2]; 178 % of control (dose: 75.0 mg/kg/injection, schedule: Q04DX003 (ip), vehicle: saline with Tween-80).

With `CC1(C)CC1(Br)Br`, the T/C under setting [11] is 100 % of control; the T/C under setting [12] is 106 % of control; the T/C under setting [9] is 98 % of control and 100 % of control.

Turning to `COc1cc(/C=C/[N+](=O)[O-])c(OC)cc1Br`, the T/C (dose: 3.12 mg/kg/injection, schedule: Q01DX009 (ip), vehicle: saline with Tween-80) was 99 % of control; the T/C (dose: 6.25 mg/kg/injection, schedule: Q01DX009 (ip), vehicle: saline with Tween-80) was 103 % of control; the T/C under setting [11] was 105 % of control; the T/C under setting [12] was 153 % of control; the T/C under setting [1] is 94 % of control.
